According to ChEMBL document CHEMBL2380213, “Conformational restriction approach to BACE1 inhibitors II: SAR study of the isocytosine derivatives fixed with a cis-cyclopropane ring” (Bioorg Med Chem Lett, 2013):

target: Beta-secretase 1 (Homo sapiens, UniProt P56817); assay: Inhibition of human recombinant BACE1 expressed in Escherichia coli BL21(DE3) using Biotin-XSEVNLDAEFRHDSGC-Eu as substrate after 3 hrs by HTRF assay
Sequence (P56817 whole entry): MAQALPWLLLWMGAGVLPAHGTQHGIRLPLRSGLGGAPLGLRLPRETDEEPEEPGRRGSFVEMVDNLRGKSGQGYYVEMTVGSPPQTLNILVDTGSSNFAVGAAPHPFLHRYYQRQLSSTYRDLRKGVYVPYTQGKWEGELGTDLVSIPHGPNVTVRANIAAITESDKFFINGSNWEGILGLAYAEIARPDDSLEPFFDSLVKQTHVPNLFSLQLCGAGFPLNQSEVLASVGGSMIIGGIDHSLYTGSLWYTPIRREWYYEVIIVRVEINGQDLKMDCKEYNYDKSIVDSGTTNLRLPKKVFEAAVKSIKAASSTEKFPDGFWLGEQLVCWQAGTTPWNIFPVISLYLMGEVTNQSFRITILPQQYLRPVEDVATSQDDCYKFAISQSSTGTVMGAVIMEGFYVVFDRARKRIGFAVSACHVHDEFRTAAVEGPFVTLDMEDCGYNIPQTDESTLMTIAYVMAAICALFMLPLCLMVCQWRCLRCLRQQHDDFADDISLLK

IC50 [µM]	Compound
> 200	Cn1c(N)nc([C@H]2C[C@H]2c2cccc(C#Cc3ccccc3)c2)cc1=O
120	Cc1ccccc1CCc1cccc([C@@H]2C[C@@H]2c2cc(=O)n(C)c(N)n2)c1
> 200	Cc1cccc(CCc2cccc([C@@H]3C[C@@H]3c3cc(=O)n(C)c(N)n3)c2)c1
> 200	Cc1ccc(CCc2cccc([C@@H]3C[C@@H]3c3cc(=O)n(C)c(N)n3)c2)cc1
100	COc1cccc(CCc2cccc([C@@H]3C[C@@H]3c3cc(=O)n(C)c(N)n3)c2)c1
> 200	Cn1c(N)nc(CCc2cccc(CCc3ccccc3)c2)cc1=O
39.4	CCOc1cccc(-c2cccc([C@@H]3C[C@@H]3c3cc(=O)n(C)c(N)n3)c2)c1
74.9	Cc1cccc(-c2cccc([C@@H]3C[C@@H]3c3cc(=O)n(C)c(N)n3)c2)c1
47.5	CSc1cccc(-c2cccc([C@@H]3C[C@@H]3c3cc(=O)n(C)c(N)n3)c2)c1
> 200	CN(C)c1cccc(-c2cccc([C@@H]3C[C@@H]3c3cc(=O)n(C)c(N)n3)c2)c1
> 200	Cn1c(N)nc([C@H]2C[C@H]2c2cccc(-c3cccc(N)c3)c2)cc1=O
72.4	Cn1c(N)nc([C@H]2C[C@H]2c2cccc(-c3cccc(F)c3)c2)cc1=O
30.8	COc1ccc(-c2cccc([C@@H]3C[C@@H]3c3cc(=O)n(C)c(N)n3)c2)cc1
84.9	COc1cncc(-c2cccc([C@@H]3C[C@@H]3c3cc(=O)n(C)c(N)n3)c2)n1
> 200	Cn1c(N)nc([C@H]2C[C@H]2c2cccc(Cc3ccccc3)c2)cc1=O
22.2	Cn1c(N)nc([C@H]2C[C@H]2c2cccc(CCc3ccccc3)c2)cc1=O
> 200	Cn1c(N)nc([C@H]2C[C@H]2c2cccc(CCCc3ccccc3)c2)cc1=O
> 200	Cn1c(N)nc([C@H]2C[C@H]2c2cccc(/C=C/c3ccccc3)c2)cc1=O
